Measured values from publication PMC10410440, “Preclinical PK investigation of a novel IDO1/TDO dual inhibitor—SHR9146 in mouse plasma and tissues by LC-MS/MS” (Frontiers in Oncology, 2023).
Like-named read-outs stand apart in the source and are kept apart here.

Test: Plasma pharmacokinetics of SHR9146 in mice (LC-MS/MS, non-compartmental analysis)
Format: in vivo, ICR mice
Details: both sexes, ICR, mouse, plasma; for bioavailability: mice
Protocol: ICR mice with body weight 16–26 g were supplied by Shanghai Lingchang Biotechnology Co., Ltd. (animal breeding license number SCXK (Shanghai) 2013-0018) and housed at Shanghai Institute of Materia Medica, Chinese Academy of Sciences [animal use license number SYXK (Shanghai) 2015-0027]. The mice used in this study were fasted overnight for 12 h but had free access to water. Food was supplied 4 h post-dose. All experiments in this study were conducted in accordance with the Guidelines for the Care and Use of Laboratory Animals of Shanghai Institute of Materia Medica, Chinese Academy of Sciences.
A total of 30 mice were randomly assigned into five groups with equal numbers, males and females. One group was intravenously administrated with 5 mg/kg SHR9146 dissolved in […] plus 95% saline (adjusted pH to 4.0) under sterile conditions. The remaining four groups were administered respectively with a single dose of 20 , 40, or 80 mg/kg or multiple doses of 20 mg/kg twice daily for 7 days, by oral gavage of SHR9146 dissolved in 0.5% CMC-Na. Blood samples were obtained from the fossa orbitalis vein at 15 and 30 min and 1.0, 2.0, 4.0, 6.0, 8.0, 10.0, and 24.0 h after oral gavage administration. An additional 5-min time point was included for iv injection, as well as the pre-drug administration time points on the fifth, sixth, and seventh days in the multiple-dose group. The blood samples were collected in EDTA K2 anticoagulant blood collection tubes and centrifuged at 1,000 rpm for 5 min at 4°C. The supernatant plasma samples were thus produced.
Briefly as follows, an aliquot of 25-μL plasma or tissue homogenate was spiked with 100 μL of internal standard solution (1 μg/mL for plasma, 0.2 μg/mL for tissue homogenate) and 300 μL of methanol added and vortex mixed for 60 s. The mixture was then centrifuged at 14,000 rpm at 4°C for 5.0 min, and the supernatant was diluted with methanol–water (4:1, v/v) in a ratio of 1:9 for the plasma or 1:1 for the tissue homogenate, and 5 μL of the resulting solution was injected for the LC-MS/MS analysis.
The pharmacokinetic parameters of SHR9146 in mouse plasma were estimated by Phoenix 1.4 software using a non-compartmental model.
The mean concentration–time curves of SHR9146 in mouse plasma after a single oral gavage dose of 20, 40, or 80 mg/kg, or a single intravenous dose of 5 mg/kg, or the 7th-day steady state after twice-daily multiple oral doses of 20 mg/kg are shown in Figure 5 (Table S6).

[1] = oral, 40 mg/kg, 40 mg/kg i.g. single, read-out: plasma drug concentration, mean (n=6)
[2] = oral, 40 mg/kg, 40 mg/kg i.g. single, read-out: plasma drug concentration, individual mice #1-#6
[3] = oral, 80 mg/kg, 80 mg/kg i.g. single, read-out: plasma drug concentration, individual mice #1-#6
[4] = oral, 80 mg/kg, 80 mg/kg i.g. single, read-out: plasma drug concentration, mean (n=6)
[5] = po, 20 mg/kg, 20 mg/kg i.g. bid, 7 days (7th-day steady state), all mice (Totol, 3 male + 3 female)

## OCCn1cc(-c2ccc(N3CCC([C@H]4c5c(F)cccc5-c5cncn54)CC3)cc2)cn1 [SHR9146]
[1]
  concentration at 1 h: 9980 ng/mL
  concentration at 2 h: 4920 ng/mL
  concentration at 3 h: 1130 ng/mL
  concentration at 4 h: 4350 ng/mL
  concentration at 6 h: 1010 ng/mL
[2]
  concentration at 8 h: 582 ng/mL
  concentration at 10 h: 293 ng/mL
  concentration at 24 h: 136 ng/mL
oral, 80 mg/kg, 80 mg/kg i.g. single, 0.25 h, read-out: plasma drug concentration, mean (n=6)
  concentration at 0.25 h: 6130 ng/mL
[3]
  concentration at 0.5 h: 9320 ng/mL
  concentration at 24 h: 96 ng/mL
[4]
  concentration at 0.5 h: 11300 ng/mL
  concentration at 1 h: 12900 ng/mL
  concentration at 2 h: 8930 ng/mL
  concentration at 3 h: 4670 ng/mL
  concentration at 4 h: 8950 ng/mL
  concentration at 6 h: 2260 ng/mL
  concentration at 8 h: 1200 ng/mL
  concentration at 10 h: 1700 ng/mL
[5]
  AUC(0-inf): 24400 ng·h/mL
  Cmax at 7 days: 10700 ± 811 ng/mL
  half-life at 7 days: 1.01 h
po, 20 mg/kg, 20 mg/kg i.g. bid, 7 days (7th-day steady state), all mice (Totol, 3 male + 3 female), read-out: AUC0-t
  AUC(0-t): 24200 ng·h/mL
po, 20 mg/kg, 20 mg/kg i.g. bid, 7 days (7th-day steady state), all mice (Totol, 3 male + 3 female), read-out: Tmax
  Tmax: 0.833 ± 0.258 h
po, 20 mg/kg, 20 mg/kg i.g. single dose vs 5 mg/kg i.v., one value for the dose, read-out: F (absolute bioavailability)
  bioavailability: 57.7%
po, 20 mg/kg, 20 mg/kg i.g. single dose, all mice (Totol, 3 male + 3 female)
  AUC(0-inf): 16300 ng·h/mL
po, 20 mg/kg, 20 mg/kg i.g. single dose, all mice (Totol, 3 male + 3 female), read-out: AUC0-t
  AUC(0-t): 15600 ng·h/mL
po, 20 mg/kg, 20 mg/kg i.g. single dose, all mice (Totol, 3 male + 3 female), read-out: Cmax
  Cmax: 9610 ± 3110 ng/mL
po, 20 mg/kg, 20 mg/kg i.g. single dose, all mice (Totol, 3 male + 3 female), read-out: Tmax
  Tmax: 0.458 ± 0.292 h
po, 20 mg/kg, 20 mg/kg i.g. single dose, all mice (Totol, 3 male + 3 female), read-out: t1/2 (converted)
  half-life: 0.699 h
po, 40 mg/kg, 40 mg/kg i.g. single dose vs 5 mg/kg i.v., one value for the dose, read-out: F (absolute bioavailability)
  bioavailability: 40.2%
po, 40 mg/kg, 40 mg/kg i.g. single dose, all mice (Totol, 3 male + 3 female), read-out: AUC0-t
  AUC(0-t): 21700 ng·h/mL
po, 40 mg/kg, 40 mg/kg i.g. single dose, all mice (Totol, 3 male + 3 female), read-out: Cmax
  Cmax: 12400 ± 4120 ng/mL
po, 40 mg/kg, 40 mg/kg i.g. single dose, all mice (Totol, 3 male + 3 female), read-out: Tmax
  Tmax: 1.58 ± 1.28 h
po, 80 mg/kg, 80 mg/kg i.g. single dose vs 5 mg/kg i.v., one value for the dose, read-out: F (absolute bioavailability)
  bioavailability: 64.7%
po, 80 mg/kg, 80 mg/kg i.g. single dose, all mice (Totol, 3 male + 3 female)
  AUC(0-inf): 70900 ng·h/mL
po, 80 mg/kg, 80 mg/kg i.g. single dose, all mice (Totol, 3 male + 3 female), read-out: AUC0-t
  AUC(0-t): 70000 ng·h/mL
po, 80 mg/kg, 80 mg/kg i.g. single dose, all mice (Totol, 3 male + 3 female), read-out: Cmax
  Cmax: 17100 ± 6290 ng/mL
po, 80 mg/kg, 80 mg/kg i.g. single dose, all mice (Totol, 3 male + 3 female), read-out: Tmax
  Tmax: 1.5 ± 1.34 h
po, 80 mg/kg, 80 mg/kg i.g. single dose, all mice (Totol, 3 male + 3 female), read-out: t1/2 (converted)
  half-life: 2.4 h
po, 80 mg/kg, single oral doses 20, 40, 80 mg/kg, read-out: absolute (oral) bioavailability, mean over single oral doses
  bioavailability: 54.2%
po, 80 mg/kg, single oral doses 20, 40, 80 mg/kg, read-out: absolute (oral) bioavailability, range over single oral doses
  bioavailability: 40.2 to 64.7%
po, after oral dosing from 20 to 80 mg/kg, mouse plasma, read-out: AUC0-t, range over oral doses
  AUC(0-t): 15600 to 70000 ng·h/mL
po, after oral dosing from 20 to 80 mg/kg, mouse plasma, read-out: Cmax, range over oral doses
  Cmax: 8750 to 12900 ng/mL
po, after oral gavage, mouse plasma, read-out: mean Tmax, range over oral doses
  Tmax: 0.458 to 1.58 h
po, oral 20 to 80 mg/kg pooled, mouse plasma, n=6, read-out: Tmax, post-oral
  Tmax: 0.79 ± 0.36 h
po, oral 20 to 80 mg/kg pooled, mouse plasma, n=6, read-out: t1/2, post-oral (converted)
  half-life: 1.59 ± 0.853 h
po, 20 mg/kg i.g. single dose, all mice (Totol, 3 male + 3 female), read-out: MRT0-∞
  MRT inf: 1.64 h
